Assay results taken from US9879325B2, “Method for predicting the responsiveness a patient to a treatment with an anti-CD20 antibody” (ASSISTANCE PUBLIQUE—HÔPITAUX DE PARIS, priority 2014, dated 2018).

Assays:
DLBCL patients = assay: Overall survival of DLBCL patients by gapdh mRNA level; format: in vivo, human
Description: Thirteen patients who underwent biopsy for DLBCL between May 2007 and May 2011 at the Saint-Louis Hospital (Department of Onco-hematology, Hopital Saint-Louis, Paris, France) were selected. The patients received the necessary information concerning the study and consent was obtained. Morphologic classification of the tumors was assigned according to the World Health Organization (WHO) criteria (Campo et al., 2011). The tumors extensions were staged according to the Ann Arbor stage, and all patients were scored by IPIaa (project, 1993). Follow-up data for all the patients were collected regularly. Among these patients, 8 relapsed (61.5%) and 6 (46%) died.
Data are expressed as mean±standard deviation (SD). Differences in the calculated mean between each group were analyzed using Fisher test (quantitative variable). Survival functions were estimated by the Kaplan-Meier method and compared by the log-rank test. A P value of 0.05 or less was considered to indicate statistical significance. Kaplan-Meier survival curves and box plot representations were performed using “R” software.
[…] was measured from the date of diagnosis to that of death from any cause or to the stopping date. When the latter date was not reached, the data were censored at the date of the last follow-up evaluation. […]

GAPDH = assay: Measurement of GAPDH activity; format: biochemical; details: non-toxic doses
Method: Cells were lysed in a buffer containing 10 mmol/L HEPES (pH 7.4), 150 mmol/L NaCl, 5 mmol/L EDTA, 1% NP40, 10 μg/mL aprotinin, 1 mmol/L phenylmethylsulfonyl fluoride and 10 mmol/L leupeptin (buffer A). Lysates were standardized for protein content and incubated with 0.25 mmol/L NAD, 3.3 mmol/L DTT, 13 mmol/L Na4P2O7 (pH 8.5), 26 mmol/L sodium arsenate, and 25 mmol/L D-glyceraldehyde-3-phosphate in a black 96-well plate (Cellstar). GAPDH activity was measured on a fluoroscan at 445 nm as the increase in fluorescence related to NADH accumulation. Activity is expressed as the change in absorbance per milligram of protein.

HIF-1 = HIF-1 activity luciferase assay; format: cell-based; details: non-toxic doses; hypoxia
Method: HIF-1 activity. HeLa cells stably expressing the p3HRE-Dptk-LUC vector, which contain three copies of the hypoxia-responsive element (HRE) from the erythropoietin gene (Dayan et al., 2006), were transiently transfected (calcium phosphate) with control vector (pMIG or empty pSUPER vector) or vectors (2 μg) to either overexpress or to silence GAPDH. The following day, transfected cells were exposed to normoxia or hypoxia 1% O2 for 24 hours before cell lysis in a reporter lysis buffer (Promega). It is worth noting that for determination of HIF-1 activity in hypoxia, cells were directly lysed in the hypoxic chamber). The luciferase assay was performed as previously described (Jacquin et al., 2013).

HIF-1α = HIF-1α protein expression (Western blot); format: cell-based; details: non-toxic doses; hypoxia
Method: Briefly, after exposure to normoxia or hypoxia, cells were washed and lysed in laemmli buffer. Cells exposed to hypoxia were lysed in the hypoxic chamber. Proteins (40 μg) were separated on 8% to 12% SDS polyacrilamide gels and transferred onto polyvinylidene difluoride membranes (Millipore). Membranes were then blotted with antibody corresponding to the indicated proteins. Immunoreactive bands were detected with a horseradish peroxidase (HRP) anti-mouse (Dako) or anti-rabbit (Cell Signaling) by enhanced chemiluminescence (Pierce). When indicated, Western blot quantification was made using ImageJ software.

NF-κB [1] = assay: Electrophoretic mobility shift assay (EMSA) of NF-κB binding in Raji cells; format: cell-based, human; details: hypoxia 1% O2 24 hours, 0.2 μg/ml
Method: Total cell extracts from Raji cells treated or not with 0.2 μg/ml of KA and exposed to normoxia or hypoxia 1% O2 for 24 hours were prepared as previously described (Bottero et al., 2003). For mobility shift assay, a NF-κB probe consisting of a synthetic double stranded oligonucleotide containing the KB binding site of the Igκ promoter was used. The end-labeled probe (T4 kinase) was incubated with extracts samples for 20 minutes at 30° C. Complexes were separated by electrophoresis on a 5% non-denaturating polyacrylamide gel in 0.5×TBE. Dried gels were subjected to autoradiography.

NF-κB [2] = assay: NF-κB activity luciferase assay; format: cell-based
Method: HeLa cells stably expressing GAPDH-V5 or GAPDH double mutant (DM-V5) control (pMIG) were transiently co-transfected by the classical calcium phosphate method with 0.5 μg of a vector encoding cFP and 2 μg of a luciferase reporter gene controlled by a minimal tk promoter ans sex reiterated KB sites (icBx6 tk luc). Forty-eight hours after transfection, cells were exposed to either normoxia or hypoxia 1% O2 for 24 hours before harvesting and analyzing as previously described (Bottero et al., 2003).

GAPDH-TRAF2 interaction = assay: GAPDH-TRAF2 co-immunoprecipitation in cells cultured in hypoxia; format: cell-based; details: Eμ-Myc and HeLa cells
Method: (§1) Protein G Sepharose 4B beads (Invitrogen, CA, USA) were first incubated with rabbit anti-TRAF2 or mouse anti-GAPDH antibody or IgG control (Santacruz, Calif., USA) for 4 hours at 4° C. Beads were then incubated overnight with 1 mg of precleared protein lysed in 20 mM Tris-HCl, pH 7.4, 137 mM NaCl, 1 mM EGTA, 10% glycerol, 1% Triton X-100, 1.5 mM MgCl2, 1 μg/μl PMSF, protease and phosphatase inhibitor cocktail (Thermo Scientific). Samples were then washed five times, boiled in Laemmli buffer and analyzed by immunoblotting with the indicated antibodies

GAPDH/TRAF2 interaction = biological target: T1, GAPDH/TRAF2 interaction (Mus musculus, UniProt P16858); assay: GAPDH/TRAF2 co-immunoprecipitation in tissues of Eμ-Myc bearing mice; format: in vivo; details: 24 hours after treatment
T1 construct: from tissue; lymph node tumors are collected elsewhere in the text
T1 sequence (P16858 whole entry): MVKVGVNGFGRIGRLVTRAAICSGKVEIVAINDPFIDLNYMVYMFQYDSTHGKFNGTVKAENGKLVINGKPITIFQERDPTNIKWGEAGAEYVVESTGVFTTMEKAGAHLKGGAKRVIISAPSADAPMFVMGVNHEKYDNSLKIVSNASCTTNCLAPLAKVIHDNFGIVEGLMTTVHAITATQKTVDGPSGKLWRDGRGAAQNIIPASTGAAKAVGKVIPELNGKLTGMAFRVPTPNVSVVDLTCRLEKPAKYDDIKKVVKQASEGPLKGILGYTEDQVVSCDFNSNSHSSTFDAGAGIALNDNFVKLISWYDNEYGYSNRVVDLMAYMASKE
Method: as §1, with “Consequently, we investigated GAPDH-TRAF2 binding in Eμ-Myc and HeLa cells and evidenced that GAPDH could be co-immunprecipitated with TRAF2 when cells are cultured in hypoxia. […] We further tested this interaction in vivo. For that matter Eμ-Myc bearing mice were treated once with PBS or with the covalent inhibitor koningic acid (i.p) and GAPDH/TRAF2 interaction was investigated by co-immunoprecipation in tissues, 24 hours after treatment. […] Protein” for “Protein”

hif-1α mRNA = hif-1α mRNA in vivo (qPCR); design: species or system mouse; details: 5 mg/kg
Method: Consequently, we investigated GAPDH-TRAF2 binding in Eμ-Myc and HeLa cells and evidenced that GAPDH could be co-immunprecipitated with TRAF2 when cells are cultured in hypoxia. […] We further tested this interaction in vivo. For that matter Eμ-Myc bearing mice were treated once with PBS or with the covalent inhibitor koningic acid (i.p) and GAPDH/TRAF2 interaction was investigated by co-immunoprecipation in tissues, 24 hours after treatment.
(§2) Total RNA was extracted from cells using the RNA extraction kit (Qiagen) according to the manufacturer's instructions. Total RNA (2 μg) was added to 20 μl reverse transcription-PCR using the Omniscript kit (Qiagen). The relative mRNA expression level of gapdh, hif-1α, ca9, vegf-α, ldh-a (mouse and human) were obtained by real-time quantification PCR (qPCR), using the TaqMan PCR Master Mix (Eurogentec) and TaqMan assay primer set (Applied Biosystems, Foster City, Calif.) on the 7500 Fast and the Step One (Applied Biosystems) according to the manufacturer's instructions (sequences provided upon request). For in vitro experiment, all samples were normalized to rplp0. All mRNA samples from human tumor tissues were normalized by ppia (cyclophilin-a).

[3] = tested on: ms4a1 (CD20 encoding gene); assay: ms4a1 expression in lymphoma bearing mice; design: species or system mouse; details: in vivo inhibition of GAPDH
Method: To get deeper into the mechanism of CD20 expression, we observed that upon 24 hours of hypoxia, primary Eμ-Myc cells are showing a 2-fold increase in mRNA level of ms4a1 when compared to normoxia. […] We then confirmed the effects of hypoxia on CD20 cell surface expression using the human Burkitt's lymphoma cell line Raji.
as §2

[4] = tested on: CD20 cell surface expression; assay: CD20 cell surface expression by flow cytometry in Raji cells; format: cell-based, human; details: hypoxia 1% O2 48 h, non-toxic doses (0.1 μg/ml)
Method: Cells (0.5·10^6) cells (in triplicate) were washed 1×PBS and incubated at 4° C. with the monoclonal anti-CD20 (Affymetrix eBioscience) at a concentration of 2.5 μg/ml for 45 minutes. IgG isotypic controls were included. Cells were then washed 2×PBS and incubated at 4° C. for 30 minutes in the dark with a anti-mouse Alexa 488 (1 μg/ml). Then cells were washed twice in PBS and resuspend in 100 μl of PBS containing 0.5 μg/ml of DAPI (4′,6-diamidino-2-phenylindole). Ten thousand events were analyzed immediately by flow cytometry using a MACSQuant Analyzer (Miltenyi Biotec). The mean fluorescence intensity (MFI) obtained for lived (DAPI negative) CD20 positive cells was reported. Histograms represent the average of three independent experiments.
A total of 1×10^6 cells were washed in PBS and incubated for 45 minutes at 4° C. with the monoclonal anti-CD20 antibody (2.5 μg/ml) (Affymetrix eBioscience). The cells were then washed in PBS and incubated at 4° C. for 30 minutes with an anti-mouse Alexa Fluor 488 (1 μg/ml). […] After washing twice in the saponine-containing buffer, the cells are resuspended in PBS/2% FCS and analyzed by flow cytometry. Immediately afterwards, 10,000 events were analyzed by flow cytometry using a MACSQuant Analyzer (Miltenyi Biotec). The mean fluorescence intensity (MFI) obtained for CD20-low, CD20-high, GAPDH-low, GAPDH-high cells, was reported.

Molecule | patients still alive 350 days following the diagnosis (DLBCL patients; "low" gapdh group) [%] | patients still alive 350 days following the diagnosis (DLBCL patients; DLBCL with "high" levels of gapdh mRNA) [%] | reduction of GAPDH activity (GAPDH) | HIF-1 activity (HIF-1) | HIF-1α expression (HIF-1α) | NF-κB binding to its consensus sequence (NF-κB [1]) | NF-κB transcriptional activity (NF-κB [2]; hypoxic HeLa cells) | NF-κB activity (NF-κB [2]; specific and partial inhibition of GAPDH in hypoxia) | GAPDH-TRAF2 interaction (GAPDH-TRAF2 interaction) | GAPDH/TRAF2 interaction in vivo (GAPDH/TRAF2 interaction; 0.5 mg/kg i.p. once) | GAPDH/TRAF2 interaction in vivo (GAPDH/TRAF2 interaction; 5 mg/kg i.p. once) | hif-1α mRNA in vivo (hif-1α mRNA) | ms4a1 expression [3] | hypoxic-dependent increase in CD20 cell surface expression [4]
Rituximab-based chemotherapy: anti-CD20 monoclonal antibody rituximab given with chemotherapy to DLBCL patients upon diagnosis | 33 | 100 | – | – | – | – | – | – | – | – | – | – | – | –
CC(C)[C@H]1CC[C@@]2(CO2)[C@H]2C(=O)OCC(C(=O)O)=C[C@H]12 [Koningic acid] | – | – | 50-60% | decrease in HIF-1 activity | decrease | reduced its binding in hypoxia | prevented NF-κB transcriptional activity | decreases NF-κB activity | loss of GAPDH-TRAF2 interaction | inactive dose | reduced the interaction | reduced hif-1α mRNA | reduction in ms4a1 expression | prevented this hypoxic-dependent increase in CD20 expression
